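Step 1: Grow cells in 96-well plates. Step 2: Expose to compound for 48 hours at 5 concentrations. Step 3: Interpolate endpoints linearly; if unreached, use highest concentration. GI50 = concentration required for 50% inhibition of growth. TGI marks complete inhibition of growth.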 Where a SMILES comes first, the peptide text is derived from it. [ ]: non-standard residue; d: D form. The star is where a group is joined. ξ: configuration not given here. ξF = NC(Cc1ccccc1)C(=O)O; Cbz = O=C(OCc1ccccc1)*; Aib = CC(C)(N)C(=O)O

Experiment in all cases: NCI-60 cell line screen, 48 h
Test [1] relates to OVCAR-8 ovarian.
The subject of test [2] is PC-3 prostate.
In test [3] the test system is BT-549 breast.
For test [4], the system named is NCI-H23 lung.
The subject of test [5] is MCF7 breast.
Test [6] concerns HCC-2998 colon.
Test [7] relates to OVCAR-5 ovarian.
Test [8] relates to HOP-62 NSCLC.
Test [9] relates to T-47D breast.
Test [10] deals with HL-60(TB) leukemia.

`COc1cc(Nc2nnc3n2S(=O)(=O)c2cc(C)c(Cl)cc2S3)cc(OC)c1`: the TGI was 81.1 µM in test [1]; 47 µM in test [2]; 22.1 µM in test [3]; 43.7 µM in [4]; greater than 100 µM in test [5]; greater than 100 µM in [6]. Besides, the TGI in [7] was greater than 100 µM; in [8], 26.7 µM; in [9] it was 44.5 µM; in [10] it was 49.7 µM.

Consider `C(=N\OCCc1ccccc1)/c1cccnc1`, for which the TGI in test [1], in [2], in test [3], in [4], in [5] and in test [6] was greater than 100 µM throughout. For the same compound, the TGI in test [7], in [8], in test [9] and in test [10] was greater than 100 µM throughout.

With `COC(=O)C(C)(C)NC(=O)C(Cc1ccccc1)NC(=O)C(C)(C)NC(=O)OCc1ccccc1` (stereo not drawn) (Cbz-[Aib]-[ξF]-[Aib]-OMe), the TGI in test [1], in [2], in test [5], in test [6], in test [7] and in test [8] was greater than 100 µM throughout. The TGI in test [9] and in test [10] was greater than 100 µM in each case.

For `Cc1ccc(C(O)(c2ccc(C)cc2)c2ccccn2)cc1`, the TGI in test [1], in test [4], in test [6], in test [7] and in [8] was greater than 100 µM in each case.

In the case of `CC(C)(C)c1cc(OCc2nnc3sc(=S)[nH]n23)c(Cl)cc1OCc1nnc2sc(=S)[nH]n12`, the TGI is greater than 100 µM in test [1]; greater than 100 µM in test [2]; greater than 100 µM in [3]; 95.5 µM in test [4]; 31.6 µM in test [5]; 65.2 µM in [6]. For the same compound, the TGI was greater than 100 µM in test [7], greater than 100 µM in test [8], 57.7 µM in test [9] and 55.5 µM in test [10].

Consider `COc1cc(-c2n/c(=C\c3c(O)[nH]c4cc(Cl)ccc34)cc3c2=Nc2ccccc2-3)cc(OC)c1OC`, for which the GI50 was 4.6 µM in [1]; 4.59 µM in test [2]; 2250 nM in test [3]; 3.57 µM in test [4]; 2710 nM in test [5]; 7.32 µM in test [6]. The GI50 in [7] was 18.3 µM; in [8], 2640 nM; in test [9], 4.19 µM; in [10], 84.4 µM. Also, the TGI in [1] was 29.2 µM; in test [2] it was 58.4 µM; in test [3], 5.12 µM; in test [4], 23.2 µM; in [5] it was 13.6 µM; in test [6], greater than 100 µM. For the same compound, the TGI in test [7] is greater than 100 µM; in test [8], 5.73 µM; in [9], 18.5 µM; in test [10], greater than 100 µM.

As to `COC1=CC(=O)c2c(c(COP(=O)(N(C)CCBr)N(C)CCBr)cn2C)C1=O`, the TGI turned out to be 0.314 µM in test [1]; 7.02 µM in [2]; 0.616 µM in test [3]; 2.06 µM in test [4]; 0.671 µM in test [5]; 0.192 µM in [6]. Besides, the TGI in test [7] is 0.564 µM; in [8] it was 0.776 µM; in [9], 19 µM; in [10] it was greater than 100 µM.

Turning to `Nc1nc2ccc(OCC(O)CN3CCCCC3)cc2[n+]([O-])n1` (stereo not drawn), the TGI in test [1], in test [2], in test [3], in [4], in test [5] and in test [6] was greater than 100 µM in each case. Also, the TGI in test [7] and in test [10] was greater than 100 µM throughout.

On to `CCOc1ccc(N=NS(=O)(=O)O)cc1`, for which the TGI in test [1], in test [2], in test [3], in [4], in [5] and in test [6] was greater than 100 µM throughout. Besides, the TGI in test [7], in [8], in test [9] and in test [10] was greater than 100 µM in each case.

For `Nc1c(-c2ccccc2[N+](=O)[O-])nc2ccccn12`, the TGI in test [1], in test [4], in test [6], in [7], in [8] and in test [10] was greater than 100 µM each time.

For `Clc1ccc(-c2ccc(-c3nnc(COc4ccc(OCc5nnc(-c6ccc(-c7ccc(Cl)cc7Cl)o6)o5)c(Cl)c4)o3)o2)c(Cl)c1`, the TGI in test [1], in test [3], in test [4], in [5], in test [6] and in test [7] was greater than 100 µM each time. The TGI in test [8], in test [9] and in [10] was greater than 100 µM each time.

For the compound `CCCCOCc1cc(CN2CCN(C)CC2)c(O)c2ncccc12`, the TGI in [1] is greater than 100 µM; in [4], 47.6 µM; in test [6] it was 90.2 µM; in [7], 95.8 µM; in test [8], 41.8 µM; in test [10], 13.8 µM.

On to `Cc1ccc(N2CCN(CCC(=O)O)CC2)cc1`, for which the TGI in test [1], in test [2], in [3], in test [4], in test [5] and in test [7] was greater than 100 µM each time. In addition, the TGI in test [8] and in [9] was greater than 100 µM each time.

In the case of `C[CH2][Ge]([CH2]C)([CH2]C)[O]C(=O)CCC(=O)[O][Ge]([CH2]C)([CH2]C)[CH2]C`, the GI50 is 34.7 µM in test [1]; 39.7 µM in test [4]; 90.9 µM in test [6]; greater than 100 µM in [7]; greater than 100000 nM in [8]. The TGI in [1], in test [4], in test [6], in [7] and in test [8] was greater than 100 µM each time.

As to `CC(C)(CCCCC(C)(C)C1NC(=O)N1)C1NC(=O)N1`, the TGI in [1], in test [2], in test [4], in test [5], in test [6] and in [7] was greater than 10 µM each time. The TGI in test [8], in [9] and in test [10] was greater than 10 µM in each case.

On to `CC(C)CC(NC(=O)C(Cc1ccccc1)NC(=O)C(Cc1c[nH]c2ccccc12)NC(=O)CNC(=O)C(N)Cc1ccc(O)cc1)C(=O)O` (stereo not drawn) (H-YGWFL-OH; configuration not given here), for which the TGI in [1] was greater than 100 µM; in test [2], greater than 100 µM; in [3] it was greater than 100 µM; in [4] it was greater than 100 µM; in test [5], greater than 100 µM; in test [6], 60.2 µM. Besides, the TGI in [7] is greater than 100 µM; in test [8], greater than 100 µM; in [9] it was 72.9 µM; in test [10], 60.9 µM.

On to `CCOC(=O)CCC(NC(=O)OCc1ccccc1)C(=O)NC(CCC(=O)OCC)C(=O)NNC(=O)OC(C)(C)C` (stereo not drawn), for which the TGI in test [1], in [2], in test [3], in [4], in [5] and in test [6] was greater than 100 µM in each case. For the same compound, the TGI in [7], in test [8], in test [9] and in [10] was greater than 100 µM each time.

Turning to `COc1cc(S(=O)(=O)Nc2ccc(-c3csc(N4C(=O)C(Cl)C4c4ccccc4)n3)cc2)ccc1Cl` (stereo not drawn), the TGI is 39.9 µM in [1]; greater than 100 µM in test [2]; 83.2 µM in test [3]; 89.3 µM in test [4]; greater than 100 µM in test [5]; greater than 100 µM in test [7]. For the same compound, the results for the TGI in [8], in [9] and in test [10] were greater than 100 µM, 77.1 µM and greater than 100 µM, respectively.

Values taken from PubChem BioAssay (NCI).
